Patent US11439659B2, “Methods and compositions to prevent and treat inflammation and allergic reactions” (priority 2018, dated 2022)

How the values were obtained:
DSS colitis = assay: Mouse model of DSS colitis; assay type: in vivo
Method: Mouse model of DSS colitis. WT or Ella/hyal1 mice provided 3% DSS in their drinking water for 7 days and body weight measured every day. For HA digestion by PEGPH20, Mice were intravenously injected PEGPH20 (10 mg/kg) every 3 days 24 hour prior to start DSS water feeding. For Adipogenesis inhibition by PPARg inhibitor, Mice were intraperitonealy injected 120 mg/kg every single day 48 hour prior to start DSS water feeding. Mice were sacrificed after 5 and 7 days. Distal colon, mesenteric fat and blood were collected for RNA, Bacterial culture assay and toxin analysis.
(§1) Reverse transcription-quantitative PCR (RTqPCR) analyses. RTqPCR was used to determine the mRNA abundance. Total cellular RNA was extracted using the PureLink RNA Mini Kit(Life Technologies Corporation, Grand Island, N.Y.) and mRNA were purified by using Dynabeads mRNA Purification Kit(Life technologies). 100 ng of mRNA was reverse transcribed to cDNA using iScript cDNA synthesis kit (BIO-RAD LABORATORIES, INC, Hercules, Calif.). Quantitative, real-time PCR was performed on the CFX96 real time system (Biorad) using predeveloped Taqman gene expression assay (Applied Biosystems). The expression of βActin gene was used as a house keeping gene to normalize data.
(§2) Histology and immunohistochemistry (IHC). Tissue biopsies were directly embedded in OCT compound or paraffin. Paraffin embedded tissues are used for Hematoxylin/Eosin (H&E) staining, and frozen sections were fixed in 4% PFA for 20 mins or 100% Aceton prior to immunofluorescence staining. For IHC, fixed and permeabilized tissue sections were blocked with Image-iT FX reagent (invitrogen) before incubating with primary antibodies followed by appropriate 488- or 568-coupled secondary antibodies. Nuclei were counterstained with DAPI. All images were taken with an Olympus BX41 microscope (widefield) or Zeiss LSM510 confocal microscope as indicated.
Flow cytometry analyses. Colon collected from control or DSS-treated mice was cut into small pieces then digested with 2.5 mg/mL Collagenase D and 30 ng/mL DNAse1 for 2 hours at 37° C. then filtered through a 30 μm filter to generate single cell suspension for FACS analyses. Cells were then stained with zombie violet viability dye (BioLegend, 423114), blocked with anti-mouse CD16/32 (eBioscience, 14016185), followed by staining with antibody cocktails for preadipocytes or immune cells. The antibody cocktail for preadipocytes includes AF488-SMA (eBioscience, 53976082), PECy7-CD45 (BioLegend, 147704), PerCy5.5-CD31 (BioLegend, 102522), PE-Thyl (BioLegend, 105308), APC-PDGFRa (eBioscience, 17140181), BV605-SCA1 (BioLegend, 108133) and AF700-CD24 (BioLegend, 108136). The antibody cocktail for immune cells includes PECy7-CD11b (BioLegend, 101216), FITC-Ly6G (eBioscience, 11593182), PE-F4/80 (eBioscience,12480182), APC-CD11C (BioLegend, 117310), AF700-MHCII (eBioscience, 56532182) and APC-Cy7-CD3 (BioLegend, 100222). FACS analyses for surface expression of preadipocyte or immune cell markers were performed by the BD FACSCanto RUO machine and analyzed by FlowJo V10 software. Dead cells stained positive with zombie violet dye were excluded from the analyses.
Serum Endotoxin analyses. Mouse serum was separated from mouse whole blood using serum separator tubes (Becton, Dickinson and Company). Mouse serum Endotoxin levels were quantified by ToxinSensor Chromogenic LAL Endotoxin Assay Kit (GenScript).
Hyaluronan (HA) analysis. Glucosaminoglycan (GAG) including HA were extracted from 3T3L1 supernatant and Murine skin and colon. Samples were homogenized and treated overnight with protease (0.16 mg/ml; Sigma-Aldrich) to degrade protein, followed by purification by anion exchange chromatography using DEAE sephacel (Amersham Biosciences). Columns were washed with a low-salt buffer (0.15 M NaCl in 20 mM sodium acetate; pH 6.0) and eluted with 1 M NaCl. Glycans were desalted by PD10 (GE Healthcare). HA concentration were measured ELISA Duo Set (R&D Systems). […]

[1] = test system: mouse preadipocytes (3T3L1); assay: In vitro adipocyte differentiation of 3T3L1 preadipocytes; assay type: cell-based
Method: Preadipocyte culture. The preadipocyte cell line 3T3-L1 was purchased from ATCC (CL-173) lot 59239597. 3T3-L1 cells were grown in preadipocyte proliferation medium stock (Cell applications, San Diego, Calif.), and P4˜P7 cells were used for in vitro differentiation. To induce differentiation, two days post-confluent 3T3-L1 cells were switched to adipocyte differentiation medium containing insulin, dexamethasone, and IBMX. (Cell applications, San Diego, Calif.), and medium was changed to fresh medium at day 2 and 4. To generate differentiated adipocytes for comparison studies between 3T3-L1 preadipocytes and adipocytes, 3T3-L1 cells were differentiated for 3 days followed by two days culture in Preadipocyte growth media. (Cell applications, San Diego, Calif.) before RNA or protein extraction.
as §1
Hyaluronan (HA) analysis. Glucosaminoglycan (GAG) including HA were extracted from 3T3L1 supernatant and Murine skin and colon. Samples were homogenized and treated overnight with protease (0.16 mg/ml; Sigma-Aldrich) to degrade protein, followed by purification by anion exchange chromatography using DEAE sephacel (Amersham Biosciences). Columns were washed with a low-salt buffer (0.15 M NaCl in 20 mM sodium acetate; pH 6.0) and eluted with 1 M NaCl. Glycans were desalted by PD10 (GE Healthcare). HA concentration were measured ELISA Duo Set (R&D Systems). The size distribution of HA was analyzed by agarose gel electrophoresis 41. The HA sample was mixed with TAE buffer containing 2 M sucrose and electrophoresed at 2 V/cm for 10 hours at room temperature. The gel was stained overnight under light-protective cover at room temperature in a solution containing 0.005% Stains-All in 50% ethanol, and destained in water. Hyalose ladders (Hyalose) were used for standards.

[2] = test system: S. aureus strain USA300/MRSA skin infection; assay: Mouse model of S. aureus skin infection; assay type: in vivo
Method: Mouse model of S. aureus skin infection. Staphylococcus aureus strain USA300/MRSA was used for infection. Briefly, the backs of sex-matched and age-matched adult wildtype or Ella/Hyal1 mice were shaved and hair removed by chemical depilation (Nair) then injected subcutaneously with 100 μl of a mid-logarithmic growth phase of S. aureus (2×10^6 CFU of bacteria) in PBS. Mice were sacrificed after day 3 and 8 mm skin punch biopsy comprising the center of the injection site was harvested. Infected skin surrounding the infection center (6˜8 mm) avoid of center abscess was carefully dissected out for RNA extraction or CFU determination. Skin biopsies were homogenized in 1 ml Trizol (for RNA) or PBS (for CFU counting) with 2 mm zirconia beads in a mini-bead beater 16 (Biospect, Bartlesville, Okla.). To count CFU, homogenized skin samples were serially diluted, plated onto Tryptic Soy Agar, and enumerated after 18 hours to quantify the CFU per gram of tissue. For some experiments, PEGPH20(10 mg/kg) was injected intravenously starting from 1 day prior to infection, and vehicle (10 mmol/L histidine, 130 mmol/L NaCl at pH 6.5) was used as control.
as §1, §2

[3] = mouse, in vivo
[4] = BADGE compared with hyaluronidase
[5] = 3T3L1 differentiation, 20 ug/ml PEGPH20

Compound | magnitude of inhibition of inflammation of the colon (DSS colitis; [4]) | preventing DSS induced colon injury (colon length, histology, microbial translocation) (DSS colitis; [4]) | expression of TNFα in colon (DSS colitis; DSS colitis, BADGE 120 mg/kg intraperitoneally every day from 48 hour prior to DSS) | Pref-1 expression in the colon (DSS colitis; PPARg inhibitor) | lipid droplets within cells (Bodipy) ([1]; 3T3L1, day 2 of differentiation, 20 ug/ml PEGPH20) | expression of Zfp521 mRNA [1, 5] | expression of adiponectin (Adipoq) mRNA [1, 5] | expression of antimicrobial peptide cathelicidin (Camp) [1, 5] | expression of zfp423 mRNA ([1]; adipocyte differentiation with added hyaluronidase) | adipogenesis / adipocyte differentiation in vitro ([1]; cultured preadipocytes) | lesion size ([2]; S. aureus skin infection) | expression of Camp ([2]; infected skin) | expression of IL-6 ([2]; infected skin) | gross inflammatory response of the skin to infection ([2]; mouse, in vivo) | effect on health or behavior of mice [3] | decrease in body weight (DSS colitis; 3% DSS, by day 5) | expression of tumor necrosis factor alpha (TNFα) in colon (DSS colitis; DSS colitis, hyaluronidase delivery, vs control colitis group) | gross inflammatory response of the colon to DSS (DSS colitis; mouse, in vivo)
CC(C)(c1ccc(OCC2CO2)cc1)c1ccc(OCC2CO2)cc1 (stereo not drawn) [BADGE, Bisphenol A diglycidyl ether] | less | lesser effect than hyaluronidase | inhibited expression | inhibited |  |  |  |  |  |  |  |  |  |  |  |  |  | 
hyaluronidase |  |  |  |  | decreased lipid droplets | decreased mRNA | decreased mRNA | decreased | decreased mRNA | inhibited adipocyte differentiation | decreased lesion size | decreased | decreased expression | significant decrease | No effect | lesser decrease in body weight | decreased expression | significant decrease
